ChEMBL document CHEMBL5357068, “Discovery of Novel TLR7 Agonists as Systemic Agent for Combination With aPD1 for Use in Immuno-oncology” (ACS Med Chem Lett, 2024)
Activity calls are given as the source filed them. The calls are words filed in the database; no cut-off is given here.

What was measured:
[1] = Metabolic stability in human liver microsomes assessed as compound remaining; format: ADME, Microsome; further: time not given here
[2] = Metabolic stability in mouse liver microsomes assessed as compound remaining; format: ADME, Microsome; further: time not given here
in vitro = conditions: PHA-activated T cells
[3] = target: Voltage-gated inwardly rectifying potassium channel KCNH2 (Homo sapiens, UniProt Q12809); assay: Inhibition of hERG by patch clamp assay; format: toxicity
Chain of Voltage-gated inwardly rectifying potassium channel KCNH2 (Q12809 whole entry): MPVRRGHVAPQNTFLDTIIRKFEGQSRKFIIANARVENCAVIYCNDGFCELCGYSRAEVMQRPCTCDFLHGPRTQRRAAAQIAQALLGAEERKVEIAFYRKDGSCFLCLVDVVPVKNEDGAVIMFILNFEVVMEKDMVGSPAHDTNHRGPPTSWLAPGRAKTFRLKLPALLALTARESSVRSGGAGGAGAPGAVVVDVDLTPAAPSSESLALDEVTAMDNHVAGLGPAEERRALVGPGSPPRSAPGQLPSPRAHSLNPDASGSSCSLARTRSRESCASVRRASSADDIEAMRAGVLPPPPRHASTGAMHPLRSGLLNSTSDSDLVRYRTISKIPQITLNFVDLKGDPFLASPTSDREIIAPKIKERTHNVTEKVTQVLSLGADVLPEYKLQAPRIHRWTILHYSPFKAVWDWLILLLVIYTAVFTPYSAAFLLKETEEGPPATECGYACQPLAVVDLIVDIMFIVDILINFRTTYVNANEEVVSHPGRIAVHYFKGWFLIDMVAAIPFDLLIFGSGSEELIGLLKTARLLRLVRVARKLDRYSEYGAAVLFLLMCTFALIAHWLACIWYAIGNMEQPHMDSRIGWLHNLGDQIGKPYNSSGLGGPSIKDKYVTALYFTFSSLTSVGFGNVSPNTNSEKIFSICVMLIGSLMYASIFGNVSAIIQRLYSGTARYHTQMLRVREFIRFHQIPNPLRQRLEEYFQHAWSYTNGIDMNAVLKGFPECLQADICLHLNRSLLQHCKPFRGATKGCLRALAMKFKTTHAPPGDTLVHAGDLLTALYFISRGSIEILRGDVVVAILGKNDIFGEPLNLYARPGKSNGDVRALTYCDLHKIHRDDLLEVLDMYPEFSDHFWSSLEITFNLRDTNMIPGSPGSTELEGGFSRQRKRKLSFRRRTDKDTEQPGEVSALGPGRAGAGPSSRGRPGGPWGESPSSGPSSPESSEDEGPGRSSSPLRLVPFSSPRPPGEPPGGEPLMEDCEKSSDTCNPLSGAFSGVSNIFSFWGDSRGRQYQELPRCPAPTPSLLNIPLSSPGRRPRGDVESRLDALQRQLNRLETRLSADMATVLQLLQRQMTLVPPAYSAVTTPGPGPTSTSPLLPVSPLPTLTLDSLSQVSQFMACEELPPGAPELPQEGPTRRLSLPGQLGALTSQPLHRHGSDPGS

Toll-like receptor 7 [4] = target: T1, Toll-like receptor 7 (Homo sapiens, UniProt Q9NYK1)
T1 sequence (Q9NYK1 whole entry): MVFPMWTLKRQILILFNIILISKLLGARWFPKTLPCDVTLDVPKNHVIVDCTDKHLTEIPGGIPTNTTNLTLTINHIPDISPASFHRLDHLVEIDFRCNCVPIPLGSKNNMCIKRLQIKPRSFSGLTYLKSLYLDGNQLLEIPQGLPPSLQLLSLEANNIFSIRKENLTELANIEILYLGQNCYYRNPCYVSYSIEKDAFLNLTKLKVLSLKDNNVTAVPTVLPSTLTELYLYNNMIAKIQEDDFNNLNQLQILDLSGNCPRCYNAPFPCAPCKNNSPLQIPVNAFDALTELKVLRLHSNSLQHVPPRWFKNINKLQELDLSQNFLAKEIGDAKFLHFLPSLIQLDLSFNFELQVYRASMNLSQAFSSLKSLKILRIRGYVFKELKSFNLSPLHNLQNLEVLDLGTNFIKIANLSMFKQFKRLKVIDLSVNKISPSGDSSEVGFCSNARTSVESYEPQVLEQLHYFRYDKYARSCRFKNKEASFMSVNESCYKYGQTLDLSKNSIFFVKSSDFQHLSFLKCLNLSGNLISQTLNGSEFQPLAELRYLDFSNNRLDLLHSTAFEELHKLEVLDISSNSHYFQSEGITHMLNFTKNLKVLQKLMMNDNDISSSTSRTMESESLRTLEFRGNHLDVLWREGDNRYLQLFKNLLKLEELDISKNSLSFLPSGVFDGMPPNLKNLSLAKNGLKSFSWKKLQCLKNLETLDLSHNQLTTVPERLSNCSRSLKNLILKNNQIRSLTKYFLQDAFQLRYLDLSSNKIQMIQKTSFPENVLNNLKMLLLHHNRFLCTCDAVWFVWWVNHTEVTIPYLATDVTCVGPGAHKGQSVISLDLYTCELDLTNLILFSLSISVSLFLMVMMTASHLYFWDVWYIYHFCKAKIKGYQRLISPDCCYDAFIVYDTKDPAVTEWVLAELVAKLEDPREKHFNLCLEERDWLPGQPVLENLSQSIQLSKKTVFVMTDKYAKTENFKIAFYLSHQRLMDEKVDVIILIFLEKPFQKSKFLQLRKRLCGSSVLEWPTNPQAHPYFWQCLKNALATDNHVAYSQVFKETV

Toll-like receptor 7 [5] = target: T2, Toll-like receptor 7 (Mus musculus, UniProt P58681)
T2 sequence (P58681 whole entry): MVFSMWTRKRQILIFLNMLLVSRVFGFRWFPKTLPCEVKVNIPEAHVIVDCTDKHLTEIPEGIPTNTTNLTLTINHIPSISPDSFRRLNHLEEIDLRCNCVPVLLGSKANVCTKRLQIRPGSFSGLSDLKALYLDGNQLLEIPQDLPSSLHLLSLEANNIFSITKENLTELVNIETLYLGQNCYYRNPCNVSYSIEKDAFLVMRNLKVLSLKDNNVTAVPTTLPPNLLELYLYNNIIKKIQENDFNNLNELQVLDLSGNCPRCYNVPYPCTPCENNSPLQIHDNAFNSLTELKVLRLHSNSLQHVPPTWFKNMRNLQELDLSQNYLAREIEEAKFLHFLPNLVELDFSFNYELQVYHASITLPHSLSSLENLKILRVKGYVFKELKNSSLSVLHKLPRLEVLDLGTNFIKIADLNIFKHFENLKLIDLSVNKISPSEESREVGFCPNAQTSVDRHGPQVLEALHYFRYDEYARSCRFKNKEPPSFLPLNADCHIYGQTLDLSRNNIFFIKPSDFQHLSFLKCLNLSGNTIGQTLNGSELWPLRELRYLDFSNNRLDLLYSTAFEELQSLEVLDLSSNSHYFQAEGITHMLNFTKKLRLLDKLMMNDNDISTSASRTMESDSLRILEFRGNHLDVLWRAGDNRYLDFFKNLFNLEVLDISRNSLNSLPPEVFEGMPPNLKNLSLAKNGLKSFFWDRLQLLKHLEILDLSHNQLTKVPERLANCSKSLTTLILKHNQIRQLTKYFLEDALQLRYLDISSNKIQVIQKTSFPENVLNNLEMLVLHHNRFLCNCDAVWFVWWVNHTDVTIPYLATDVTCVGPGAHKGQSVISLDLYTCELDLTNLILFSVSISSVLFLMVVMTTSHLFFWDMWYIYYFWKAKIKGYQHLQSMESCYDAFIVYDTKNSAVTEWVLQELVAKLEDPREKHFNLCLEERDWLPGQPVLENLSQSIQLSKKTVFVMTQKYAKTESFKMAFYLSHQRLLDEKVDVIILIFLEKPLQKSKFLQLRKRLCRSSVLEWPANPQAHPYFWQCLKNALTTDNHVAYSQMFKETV

[6] = target: T3, Toll-like receptor 8 (Homo sapiens) (UniProt Q9NR97); assay: Agonist activity at TLR8 (unknown origin)
T3 sequence (whole entry): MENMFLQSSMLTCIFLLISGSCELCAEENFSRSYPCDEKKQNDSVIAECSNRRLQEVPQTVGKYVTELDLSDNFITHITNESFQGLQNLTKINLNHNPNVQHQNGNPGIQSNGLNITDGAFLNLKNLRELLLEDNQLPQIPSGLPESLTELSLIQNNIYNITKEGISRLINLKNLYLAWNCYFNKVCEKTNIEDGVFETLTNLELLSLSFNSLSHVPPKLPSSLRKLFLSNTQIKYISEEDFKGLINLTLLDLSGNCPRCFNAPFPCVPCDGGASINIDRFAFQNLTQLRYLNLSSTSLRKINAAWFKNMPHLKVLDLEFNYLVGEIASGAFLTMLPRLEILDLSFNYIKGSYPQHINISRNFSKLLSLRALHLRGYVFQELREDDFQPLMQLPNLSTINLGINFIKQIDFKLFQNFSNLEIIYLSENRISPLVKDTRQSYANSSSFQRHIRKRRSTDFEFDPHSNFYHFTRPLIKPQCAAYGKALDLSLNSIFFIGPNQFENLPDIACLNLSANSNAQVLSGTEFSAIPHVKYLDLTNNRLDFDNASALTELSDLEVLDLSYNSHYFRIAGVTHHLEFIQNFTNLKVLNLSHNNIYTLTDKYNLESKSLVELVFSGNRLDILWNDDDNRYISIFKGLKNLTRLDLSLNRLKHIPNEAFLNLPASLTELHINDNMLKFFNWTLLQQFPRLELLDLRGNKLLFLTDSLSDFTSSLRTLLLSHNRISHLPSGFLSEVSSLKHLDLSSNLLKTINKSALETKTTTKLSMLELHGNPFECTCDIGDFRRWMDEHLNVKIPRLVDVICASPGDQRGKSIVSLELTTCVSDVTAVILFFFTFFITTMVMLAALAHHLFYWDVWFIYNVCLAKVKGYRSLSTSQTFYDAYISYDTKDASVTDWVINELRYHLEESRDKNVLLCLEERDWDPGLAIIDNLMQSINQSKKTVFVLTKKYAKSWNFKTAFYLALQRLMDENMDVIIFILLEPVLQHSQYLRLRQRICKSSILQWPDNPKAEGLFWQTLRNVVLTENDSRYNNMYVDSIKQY

Toll-like receptor 7 [7] = target: T2, Toll-like receptor 7; assay: Agonist activity at mouse TLR7
Toll-like receptor 8 = target: T4, Toll-like receptor 8 (Homo sapiens, UniProt Q9NR97); assay: Agonist activity at human TLR8
T4 sequence (Q9NR97 whole entry): T3 sequence (whole entry)

Cytochrome P450 3A4 = Cytochrome P450 3A4 (Homo sapiens, UniProt P08684); assay: Inhibition of CYP3A4 (unknown origin) using 7-benzyloxy-4-(trifluoromethyl)-coumarin as substrate preincubated with compound followed by substrate addition at 30 mins; format: ADME
Chain of Cytochrome P450 3A4 (P08684 whole entry): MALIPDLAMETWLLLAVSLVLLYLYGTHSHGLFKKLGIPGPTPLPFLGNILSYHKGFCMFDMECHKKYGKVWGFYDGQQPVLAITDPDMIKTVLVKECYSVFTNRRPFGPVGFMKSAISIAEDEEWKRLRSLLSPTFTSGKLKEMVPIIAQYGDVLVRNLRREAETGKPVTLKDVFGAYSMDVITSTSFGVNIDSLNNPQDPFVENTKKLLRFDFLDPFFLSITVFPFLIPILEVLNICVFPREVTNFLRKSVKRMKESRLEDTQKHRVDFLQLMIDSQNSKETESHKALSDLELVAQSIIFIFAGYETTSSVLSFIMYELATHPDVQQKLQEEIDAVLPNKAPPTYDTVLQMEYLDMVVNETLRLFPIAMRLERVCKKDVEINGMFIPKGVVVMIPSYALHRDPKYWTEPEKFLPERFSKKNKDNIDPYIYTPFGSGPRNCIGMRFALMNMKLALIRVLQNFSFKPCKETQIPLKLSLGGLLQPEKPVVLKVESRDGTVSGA

Compound | Stability [1] [%] | Stability [2] [%] | IC50 (in vitro) [µM] | IC50 [3] [µM] | also measured
CCCCNc1nc(N)nc2cnn(Cc3ccc(CNCc4ccncc4)cc3OC)c12 | 1 | 3 | – | – | –
CCCCNc1nc(N)nc2cnn(Cc3ccc(CN4CC5(CNC5)C4)cc3OC)c12 | 100 | 100 | – | – | –
CCCCNc1nc(N)nc2cnn(Cc3ccc(CN4CCNCC4)cc3OC)c12 | 83 | 60 | – | – | –
CCCCNc1nc(N)nc2ncn(Cc3ccccc3)c12 | – | – | – | – | EC50 (Toll-like receptor 7 [4]): > 5 µM
CCCCNc1nc(N)nc2cnn(Cc3ccccc3OC)c12 | – | – | – | – | EC50 (Toll-like receptor 7 [4]): 0.384 µM
CCCCNc1nc(N)nc2cnn(Cc3ccc(CN4CCCCC4)cc3OC)c12 | 33 | 2 | – | – | EC50 (Toll-like receptor 7 [5]): 0.225 µM
CCCCN(C)c1nc(N)nc2cnn(Cc3ccc(CNC4CCOCC4)cc3OC)c12 | 57 | 11 | > 25 | > 50 | IC50 (Toll-like receptor 7 [5]): > 5 µM
CCCCNc1nc(N)nc2cnn(Cc3ccc(CN4CC5CC4CN5)cc3OC)c12 (stereo not given) | 90 | 10 | – | – | –
CCCCNc1nc(N)nc2cnn(Cc3ccc(CN4CCOCC4)cc3OC)c12 | 20 | 15 | – | – | –
CCC[C@@H](CCO)Nc1nc(N)nc2cnn(Cc3ccc(CNC4CCOCC4)nc3)c12 | 100 | 91 | > 25 | > 50 | Activity [6]: inactive; EC50 (Toll-like receptor 7 [5]): > 5 µM
CCCCNc1nc(N)nc2cnn(Cc3ccc(CNC4COC4)cc3OC)c12 | 55 | 46 | – | – | –
CCCCNc1nc(N)nc2cnn(Cc3ccc(Cn4ccnc4)cc3OC)c12 | 1 | 26 | – | – | –
CCCCOc1nc(N)nc2cnn(Cc3ccc(CNC4CCOCC4)cc3OC)c12 | – | – | > 25 | – | IC50 (Toll-like receptor 7 [5]): > 5 µM
CCCCNc1nc(N)nc2cnn(Cc3ccc(C(=O)NC4CCOCC4)cc3OC)c12 | 68 | 62 | – | – | –
CCCCNc1nc(N)nc2cnn(Cc3ccc(CNC4CCOCC4)cc3OC)c12 | 68 | 25 | 22 | – | EC50 (Toll-like receptor 7 [5]): 0.453 µM
CCCCNc1nc(N)nc2cnn(Cc3ccc(CNC4CCC4)cc3OC)c12 | 41 | 2 | 16 | 18.8 | EC50 (Toll-like receptor 7 [7]): 0.121 µM; EC50 (Toll-like receptor 8): > 5 µM; IC50 (Cytochrome P450 3A4): 6.65 µM

Second part, led by results:

Stability [1] [%] | Stability [2] [%] | IC50 (in vitro) [µM] | Compound | IC50 [3] [µM] | also measured
93 | 91 | > 25 | CCC[C@@H](CCNC(C)=O)Nc1nc(N)nc2cnn(Cc3ccc(CNC4CCOCC4)cc3OC)c12 | – | –
70 | 30 | 24.7 | CCC[C@@H](C)Nc1nc(N)nc2cnn(Cc3ccc(CNC4CCOCC4)cc3OC)c12 | 30.4 | –
90 | 77 | > 25 | CCC[C@@H](CO)Nc1nc(N)nc2cnn(Cc3ccc(CNC4CCOCC4)cc3OC)c12 | > 50 | –
89 | 100 | > 25 | COc1cc(CNC2CCOCC2)ccc1Cn1ncc2nc(N)nc(N[C@@H](C)CCO)c21 | > 50 | IC50 (Toll-like receptor 7 [5]): > 5 µM
56 | 56 | > 25 | CCC[C@@H](CCO)Nc1nc(N)nc2cnn(Cc3ccc(CNC4CCOCC4)c4cccnc34)c12 | > 50 | –
66 | 91 | > 25 | CCC[C@@H](CCO)Nc1nc(N)nc2cnn(Cc3ccc(CNC4CCOCC4)cc3F)c12 | > 50 | –
51 | 55 | 7 | CCC[C@@H](CCO)Nc1nc(N)nc2cnn(Cc3ccc(CNC4CCOCC4)cc3OC(F)F)c12 | 30.4 | –
83 | 84 | > 25 | CC[C@@H](CCO)Nc1nc(N)nc2cnn(Cc3ccc(CNC4CCOCC4)cc3OC)c12 | > 50 | IC50 (Toll-like receptor 7 [5]): 1.25 µM
78 | 93 | > 25 | CCC[C@@H](CCO)Nc1nc(N)nc2cnn(Cc3ncc(CNC4CCOCC4)cc3OC)c12 | 6 | –
– | – | > 25 | CCC[C@@H](CCO)Nc1nc(N)nc2cnn(Cc3ccc(CNC4CCOCC4)nc3OC)c12 | – | –
90 | 91 | > 25 | CCC[C@@H](CCO)Nc1nc(N)nc2cnn(Cc3ccc(CNC4CCOCC4)cc3)c12 | > 50 | EC50 (Toll-like receptor 7 [5]): > 5 µM
81 | 87 | > 25 | CCC[C@@H](CCO)Nc1nc(N)nc2cnn(Cc3cnc(CNC4CCOCC4)cc3OC)c12 | > 50 | –
9 | 87 | > 25 | COc1cc(CNC2CCOCC2)ccc1Cn1ncc2nc(N)nc(N[C@H](CCO)C3CC3)c21 | > 50 | –
80 | 63 | > 25 | COc1cc(CNC2CCOCC2)ccc1Cn1ncc2nc(N)nc(N[C@H](CCO)C(C)C)c21 | > 50 | –
